Where a name gives a salt, the structure may show the parent alone. Read-outs that look alike come from different tables or passages of the source.
Tests used:
[1] = pharmacokinetics in moderate hepatic impairment; format: in vivo, human; details: for AUC0-12 and Cmax in moderate hepatic impairment compared with healthy patients: Group 2; for AUC Change Relative to Reference (90% CI); mean ratio of AUC0-12 / Cmax Change Relative to Reference (90% CI); mean ratio of Cmax: Moderate Hepatic Impairment (Group 2), GMR vs matched healthy subjects, after 8 days of twice daily dosing, hydrobromide monohydrate
[2] = solubility of the powder in water
[3] = bupropion and its metabolites; cited from earlier work
[4] = pharmacokinetics in moderate renal impairment
Excerpt: (§1) Data are GMRs and 90% CIs. References used are the matched healthy subjects for renal and hepatic impairment studies, and extensive or ultra-extensive CYP2D6 metabolizers respectively.

[5] = pharmacokinetics in CYP2D6 poor metabolizers
Excerpt: Approximately 7% to 10% of Caucasians and 3% to 8% of African Americans lack the capacity to metabolize CYP2D6 substrates and are classified as poor metabolizers.
as §1

[6] = pharmacokinetics of the subject combination at steady state; details: co-administered with bupropion
[7] = effect of food on pharmacokinetics of the subject combination
[8] = co-administration with strong CYP2D6 inhibitor (paroxetine)
[9] = system: patients with treatment-resistant depression or MDD; details: cited from earlier work
[10] = system: patients with treatment-resistant depression or MDD; details: cited from earlier work; remark: listed apart in the source
[11] = 3 poor metabolizers, subject combination
[12] = 7 subjects with moderate (GFR 30-60 mL/min) renal impairment vs 6 matched controls
[13] = patients having moderate renal impairment, tablets of Example 4
[14] = 20 mg of paroxetine, tablet of Example 4 twice daily, vs tablet twice daily without paroxetine
[15] = flexible-dose study, patients ≥65 years with treatment-resistant depression, 28 to 84 mg + oral AD, N = 72

For CC(NC(C)(C)C)C(=O)c1cccc(Cl)c1.Cl (racemic) [bupropion, (±)-1-(3-chlorophenyl)-2-[(1,1-dimethylethyl)amino]-1-propanone hydrochloride], the “AUC0-12 and Cmax in moderate hepatic impairment compared with healthy patients” value [1] is given as “not significantly different”, the solubility in water [2] is given as “highly soluble in water” and the “presence in human milk” value [3] is given as “presence of bupropion and its metabolites in human milk”. The “increase in AUC0-12 in moderate renal impairment” value ([4]; human, in vivo) was 1.80 fold, the “increase in Cmax in moderate renal impairment” value ([4]; human, in vivo) was 1.87 fold and the “increase of exposure in moderate renal impairment vs matched controls with normal renal function” value ([4]; human, in vivo) was “approximately 2 fold”. The “reduction of clearance in moderate renal impairment vs matched controls” value ([4]; human, in vivo) was 50%.
With COc1ccc2c(c1)[C@]13CCCC[C@@H]1[C@H](C2)N(C)CC3 [dextromethorphan, morphinan, 3-methoxy-17-methyl-, (9α, 13α, 14α), hydrobromide monohydrate] the “AUC0-12 and Cmax in moderate hepatic impairment compared with healthy patients” value [1] was “not significantly different”, the “AUC Change Relative to Reference (90% CI); mean ratio of AUC0-12” value [1] was 1.17 and the “Cmax Change Relative to Reference (90% CI); mean ratio of Cmax” value [1] was 1.21. For the same molecule, the “AUC Change Relative to Reference (90% CI); mean ratio of AUC0-12” value ([1]; listed as DM) was 1.17 (0.85, 1.61), the “Cmax Change Relative to Reference (90% CI); mean ratio of Cmax” value ([1]; listed as DM) was 1.21 (0.90, 1.62) and the “increase in AUC0-12 in poor metabolizers compared to extensive metabolizers” value [5, 11] was ~3.4 fold. For the same molecule, the “increase in Cmax in poor metabolizers compared to extensive metabolizers” value [5, 11] was ~3 fold, the “steady state plasma concentrations in poor metabolizers vs non-poor metabolizers” value ([5]; 12 poor metabolizers treated with the subject combination in efficacy trials) was “generally higher than exposures for non-poor metabolizers” and the “plasma concentrations in CYP2D6 poor metabolizers compared to patients who are not CYP2D6 poor metabolizers” value ([5]; subject composition) was “increases plasma concentrations of dextromethorphan”. For the same molecule, the “dose proportionality of changes in AUC and Cmax at steady state” value ([6]; varying doses of bupropion (75 to 150 mg)) was “less than dose-proportional changes”, the “dose proportionality of changes in AUC and Cmax at steady state” value ([6]; varying doses of dextromethorphan (30 to 60 mg)) was “greater than dose-proportional changes” and the solubility in water [2] was “sparingly soluble in water”. The “decrease of AUC0-12 when administered with food” value [7] was 14%, the “increase of exposure in moderate renal impairment vs matched controls with normal renal function” value [4, 12] was “approximately 2 fold” and the “reduction of clearance in moderate renal impairment vs matched controls” value [4, 12] was 50%. For the same molecule, the “increase in AUC0-12 in moderate renal impairment” value [4, 13] was 2.21 fold, the “increase in Cmax in moderate renal impairment” value [4, 13] was 2.10 fold and the “increase of AUC0-12 with concomitant paroxetine” value [8, 14] was 2.69 fold. For the same molecule, the “increase of Cmax with concomitant paroxetine” value [8, 14] was 2.38 fold, the “increase of overall exposure by paroxetine” value ([8]; co-administration of paroxetine and the subject combination, 29 healthy volunteers) was 2.5 fold and the “plasma concentrations on concomitant use of the subject combination with strong CYP2D6 inhibitor” value ([8]; in vivo) was “increases plasma concentrations of dextromethorphan”.
In the case of CN[C@]1(c2ccccc2Cl)CCCCC1=O [esketamine, Esketamine], the “Incidence of Sedation (MOAA/S score <5)” value ([9]; fixed-dose study, patients <65 years with treatment-resistant depression, 56 mg + oral AD, N = 114) is listed as 50%, the “Incidence of Sedation (MOAA/S score <5)” value ([9]; fixed-dose study, patients <65 years with treatment-resistant depression, 84 mg + oral AD, N = 114) is listed as 61% and the “Incidence of Sedation (MOAA/S score <5)” value [9, 15] is listed as 49%. The “Incidence of Dissociation (CADSS total score >4 and change >0)” value ([10]; fixed-dose study, patients <65 years with treatment-resistant depression, 56 mg + oral AD, N = 113) was 61%, the “Incidence of Dissociation (CADSS total score >4 and change >0)” value ([10]; fixed-dose study, patients <65 years with treatment-resistant depression, 84 mg + oral AD, N = 116) was 69% and the “Incidence of Dissociation (CADSS total score >4 and change >0)” value [10, 15] was 75%.

Source: US12146889B1, “Compounds and combinations thereof for treating neurological and psychiatric conditions” (priority 2022, dated 2024)
